In one assay the target is WDR5 (Homo sapiens (Human), UniProt P61964). Briefly: Surface Plasmon Resonance (SPR) assay, KD and residence time. It counts as binding. The note with it: surface plasmon resonance (SPR) assay; read-out: WDR5 binding affinity (KD).
As to `CN(C)[C@@H]1CCN(c2cc(F)c(-c3cnc(N4CCOCC4)nc3)cc2NC(=O)c2c[nH]nc2C(F)(F)F)C1` [Example 185, N-[4-fluoro-5-(2-morpholin-4-ylpyrimidin-5-yl)-2-[(3R)-3-(dimethylamino)pyrrolidin-1-yl]phenyl]-3-(trifluoromethyl)-1H-pyrazole-4-carboxamide], the Kd was determined as 29.8 nM.

For `C[C@@H]1CN(c2cc(F)c(-c3cnc(N4CCOCC4)nc3)cc2NC(=O)c2cc(Cl)cc(C(F)(F)F)c2)C[C@H](C)N1C` [Example 175, 3-chloro-N-[4-fluoro-5-(2-morpholin-4-ylpyrimidin-5-yl)-2-[(3R,5S)-3,4,5-trimethylpiperazin-1-yl]phenyl]-5-(trifluoromethyl)benzamide], the Kd was found to be 20.6 nM.

Turning to `C[C@@H]1CN(c2cc(F)c(C3=CCCN(C(=O)N(C)C)C3)cc2NC(=O)c2c[nH]c(=O)cc2C(F)(F)F)C[C@H](C)N1C` [Example 372, N-[5-[1-(dimethylcarbamoyl)-3,6-dihydro-2H-pyridin-5-yl]-4-fluoro-2-[(3R,5S)-3,4,5-trimethylpiperazin-1-yl]phenyl]-6-oxo-4-(trifluoromethyl)-1H-pyridine-3-carboxamide], the Kd is 1.75 nM.

For the compound `C[C@@H]1CN(c2cc(F)c(C3=CCN(Cc4ccc(F)cc4)CC3)cc2NC(=O)c2c[nH]c(=O)cc2C(F)(F)F)C[C@H](C)N1C` [Example 153, N-[4-fluoro-5-[1-[(4-fluorophenyl)methyl]-3,6-dihydro-2H-pyridin-4-yl]-2-[(3R,5S)-3,4,5-trimethylpiperazin-1-yl]phenyl]-6-oxo-4-(trifluoromethyl)-1H-pyridine-3-carboxamide], the Kd was determined as 1.08 nM.

Take `CC(C)CN1CC=C(c2cc(NC(=O)c3c[nH]c(=O)cc3C(F)(F)F)c(N3C[C@@H](C)N(C)[C@@H](C)C3)cc2F)CC1` [Example 150, N-[4-fluoro-5-[1-(2-methylpropyl)-3,6-dihydro-2H-pyridin-4-yl]-2-[(3R,5S)-3,4,5-trimethylpiperazin-1-yl]phenyl]-6-oxo-4-(trifluoromethyl)-1H-pyridine-3-carboxamide]: the Kd is 9 nM.

As for `CCCN(C)C1CCN(c2cc(F)c(-c3cnc(N4CCOCC4)nc3)cc2NC(=O)c2c[nH]c(=O)cc2C(F)(F)F)C1` (stereo not drawn) [Example 303, N-[4-fluoro-2-[3-[methyl(propyl)amino]pyrrolidin-1-yl]-5-(2-morpholin-4-ylpyrimidin-5-yl)phenyl]-6-oxo-4-(trifluoromethyl)-1H-pyridine-3-carboxamide], the Kd stood at 1.68 nM.

For `CC(=O)Nc1ncc(-c2cc(NC(=O)c3c[nH]c(=O)cc3C(F)(F)F)c(N3C[C@@H](C)N(C)[C@@H](C)C3)cc2F)cn1` [Example 72, N-[5-(2-acetamidopyrimidin-5-yl)-4-fluoro-2-[(3R,5S)-3,4,5-trimethylpiperazin-1-yl]phenyl]-6-oxo-4-(trifluoromethyl)-1H-pyridine-3-carboxamide], the Kd came to 0.823 nM.

In the case of `C[C@@H]1CN(c2ncc(-c3cc(NC(=O)c4c[nH]c(=O)cc4C(F)(F)F)c(N4C[C@@H](C)N(C)[C@@H](C)C4)cc3F)cn2)CCO1` [Example 388, N-[4-fluoro-5-[2-[(2R)-2-methylmorpholin-4-yl]pyrimidin-5-yl]-2-[(3R,5S)-3,4,5-trimethylpiperazin-1-yl]phenyl]-6-oxo-4-(trifluoromethyl)-1H-pyridine-3-carboxamide], the Kd turned out to be 0.788 nM.

With `C[C@@H]1CN(c2cc(F)c(-c3cnc(N4CCOCC4)nc3)cc2NC(=O)c2cc(F)cc(Cl)c2)C[C@H](C)N1C` [Example 159, 3-chloro-5-fluoro-N-[4-fluoro-5-(2-morpholin-4-ylpyrimidin-5-yl)-2-[(3R,5S)-3,4,5-trimethylpiperazin-1-yl]phenyl]benzamide], the Kd came to 29 nM.

Turning to `Cc1ncc(CN2CC=C(c3cc(NC(=O)c4c[nH]c(=O)cc4C(F)(F)F)c(N4C[C@@H](C)N(C)[C@@H](C)C4)cc3F)CC2)o1` [Example 163, N-[4-fluoro-5-[1-[(2-methyl-1,3-oxazol-5-yl)methyl]-3,6-dihydro-2H-pyridin-4-yl]-2-[(3R,5S)-3,4,5-trimethylpiperazin-1-yl]phenyl]-6-oxo-4-(trifluoromethyl)-1H-pyridine-3-carboxamide], the Kd stood at 4.05 nM.

On to `C[C@@H]1CN(c2cc(F)c(C3=CCN(Cc4cnn(C)c4)CC3)cc2NC(=O)c2c[nH]c(=O)cc2C(F)(F)F)C[C@H](C)N1C` [Example 164, N-[4-fluoro-5-[1-[(I-methylpyrazol-4-yl)methyl]-3,6-dihydro-2H-pyridin-4-yl]-2-[(3R,5S)-3,4,5-trimethylpiperazin-1-yl]phenyl]-6-oxo-4-(trifluoromethyl)-1H-pyridine-3-carboxamide], for which the Kd amounted to 1.43 nM.

As for `CC1CN(c2cc(F)c(-c3cnc(C#N)nc3)cc2NC(=O)c2cn(C)c(=O)cc2C(F)F)CCN1C` (stereo in doubt) [Example 218, N-[5-(2-cyanopyrimidin-5-yl)-4-fluoro-2-[(3R)-3,4-dimethylpiperazin-1-yl]phenyl]-4-(difluoromethyl)-1-methyl-6-oxopyridine-3-carboxamide], the Kd was found to be 3.18 nM.

The same assay, now with this note: surface plasmon resonance (SPR); read-out: WDR5 binding affinity (KD).
On to `C[C@@H]1CN(c2cc(F)c(C3=CCN(C(=O)OC4(C)CCC4)CC3)cc2NC(=O)c2c[nH]c(=O)cc2C(F)F)C[C@H](C)N1C` [Example 651, (1-methylcyclobutyl) 4-[5-[[4-(difluoromethyl)-6-oxo-1H-pyridine-3-carbonyl]amino]-2-fluoro-4-[(3R,5S)-3,4,5-trimethylpiperazin-1-yl]phenyl]-3,6-dihydro-2H-pyridine-1-carboxylate], for which the Kd is 0.897 nM.

Take `CC1CN(c2cc(F)c(-c3csc(N4CCOCC4)n3)cc2NC(=O)c2cn(C)c(=O)cc2C(F)F)CCN1C` (stereo in doubt) [Example 620, 4-(difluoromethyl)-N-[4-fluoro-5-(2-morpholin-4-yl-1,3-thiazol-4-yl)-2-[(3R)-3,4-dimethylpiperazin-1-yl]phenyl]-1-methyl-6-oxopyridine-3-carboxamide]: the Kd was determined as 4.19 nM.

For `C[C@@H]1CN(c2cc(F)c(-c3cccs3)cc2NC(=O)c2c[nH]c(=O)cc2C(F)(F)F)C[C@H](C)N1C` [Example 492, N-[4-fluoro-2-[(3R,5S)-3,4,5-trimethylpiperazin-1-yl]-5-thiophen-2-ylphenyl]-6-oxo-4-(trifluoromethyl)-1H-pyridine-3-carboxamide], the Kd turned out to be 3.35 nM.

As to `C[C@@H]1CN(c2cc(F)c(C3=CCN(c4ncc(C#N)s4)CC3)cc2NC(=O)c2c[nH]c(=O)cc2C(F)F)C[C@H](C)N1C` [Example 685, N-[5-[1-(5-cyano-1,3-thiazol-2-yl)-3,6-dihydro-2H-pyridin-4-yl]-4-fluoro-2-[(3R,5S)-3,4,5-trimethylpiperazin-1-yl]phenyl]-4-(difluoromethyl)-6-oxo-1H-pyridine-3-carboxamide], the Kd is 2.23 nM.

For `C[C@@H]1CN(c2cc(F)c(-c3ccnc(OC4CCOCC4)n3)cc2NC(=O)c2c[nH]c(=O)cc2C(F)(F)F)C[C@H](C)N1C` [Example 695, N-[4-fluoro-5-[2-(oxan-4-yloxy)pyrimidin-4-yl]-2-[(3R,5S)-3,4,5-trimethylpiperazin-1-yl]phenyl]-6-oxo-4-(trifluoromethyl)-1H-pyridine-3-carboxamide], the Kd stood at 2.53 nM.

`C[C@@H]1CN(c2cc(F)c(-c3ccc4c(c3)ncn4C)cc2NC(=O)c2cn(C)c(=O)cc2C(F)F)C[C@H](C)N1C` [Example 680, 4-(difluoromethyl)-N-[4-fluoro-5-(1-methylbenzimidazol-5-yl)-2-[(3R,5S)-3,4,5-trimethylpiperazin-1-yl]phenyl]-1-methyl-6-oxopyridine-3-carboxamide]: the Kd worked out at 58.2 nM.

Consider `C[C@@H]1CN(c2cc(F)c(-c3ncc(CN4CCOCC4)s3)cc2NC(=O)c2cn(C)c(=O)cc2C(F)F)C[C@H](C)N1C` [Example 748, 4-(difluoromethyl)-N-[4-fluoro-5-[5-(morpholin-4-ylmethyl)-1,3-thiazol-2-yl]-2-[(3R,5S)-3,4,5-trimethylpiperazin-1-yl]phenyl]-1-methyl-6-oxopyridine-3-carboxamide], for which the Kd worked out at 51.8 nM.

Regarding `CC1CN(c2cc(F)c(C3=CCN(C(=O)OC4CC(F)(F)C4)CC3)cc2NC(=O)c2ccc(F)cc2C(F)(F)F)CCN1C` (stereo in doubt) [Example 707, (3,3-difluorocyclobutyl) 4-[2-fluoro-5-[[4-fluoro-2-(trifluoromethyl)benzoyl]amino]-4-[(3R)-3,4-dimethylpiperazin-1-yl]phenyl]-3,6-dihydro-2H-pyridine-1-carboxylate], the Kd stood at 2.16 nM.

Turning to “4-(difluoromethyl)-N-[4-fluoro-5-[2-[(2R)-2-methylmorpholin-4-yl]pyrimidin-5-yl]-2-[(3S,5R)-3,4,5-trimethylpiperazin-1-yl]phenyl]-1-methyl-6-oxopyridine-3-carboxamide [Example 481]”, the Kd was found to be 4.89 nM.

Consider `COc1cnc(N2CCC=C(c3cc(NC(=O)c4c[nH]c(=O)cc4C(F)F)c(N4C[C@@H](C)N(C)[C@@H](C)C4)cc3F)C2)nc1` [Example 645, 4-(difluoromethyl)-N-[4-fluoro-5-[1-(5-methoxypyrimidin-2-yl)-3,6-dihydro-2H-pyridin-5-yl]-2-[(3R,5S)-3,4,5-trimethylpiperazin-1-yl]phenyl]-6-oxo-1H-pyridine-3-carboxamide], for which the Kd was found to be 1.41 nM.

`C[C@@H]1CN(c2cc(F)c(-c3ccc(F)c(C(N)=O)c3)cc2NC(=O)c2cn(C)c(=O)cc2C(F)F)C[C@H](C)N1C` [Example 591, N-[5-(3-carbamoyl-4-fluorophenyl)-4-fluoro-2-[(3R,5S)-3,4,5-trimethylpiperazin-1-yl]phenyl]-4-(difluoromethyl)-1-methyl-6-oxopyridine-3-carboxamide]: the Kd was 15.5 nM.

With `CC1CN(c2cc(F)c(-c3cc(C(=O)NC(C)(C)CC(C)(C)C)c(F)cc3F)cc2NC(=O)c2ccc(F)cc2C(F)(F)F)CCN1C` (stereo in doubt) [Example 625, 2,4-difluoro-5-[2-fluoro-5-[[4-fluoro-2-(trifluoromethyl)benzoyl]amino]-4-[(3R)-3,4-dimethylpiperazin-1-yl]phenyl]-N-(2,4,4-trimethylpentan-2-yl)benzamide], the Kd amounted to 172 nM.
